{"source": "patent US11053204B2", "about": "“Pyrimidinyloxy benzene derivatives as herbicides” (FMC Corporation, priority 2015, dated 2021)", "assay_type_in_all_cases": "in vivo", "key": {"[1]": {"system": "Italian ryegrass (Lolium multiflorum)", "assay": "Test A preemergence, visual injury rating", "details": "0 to 100 scale (0 no effect, 100 complete control)", "procedure,_shortened": "(§1)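 Compounds in non-phytotoxic solvent with surfactant applied as soil spray preemergence, or postemergence to plants 2-10 cm at one- to two-leaf stage, in loam/sand. After approximately 10 days in greenhouse, injury rated visually versus untreated controls, 0 (no effect) to 100 (complete control).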"}, "[2]": {"system": "giant foxtail (Setaria faberii)", "assay": "Test A preemergence, visual injury rating", "details": "0 to 100 scale (0 no effect, 100 complete control)", "procedure,_shortened": "as §1"}, "[3]": {"system": "pigweed (Amaranthus retroflexus)", "assay": "Test A preemergence, visual injury rating", "details": "0 to 100 scale (0 no effect, 100 complete control)", "procedure,_shortened": "as §1"}, "[4]": {"system": "ragweed (common ragweed, Ambrosia elatior)", "assay": "Test A preemergence, visual injury rating", "details": "0 to 100 scale (0 no effect, 100 complete control)", "procedure,_shortened": "as §1"}, "[5]": {"system": "lambsquarters (Chenopodium album)", "assay": "Test C preemergence, plant response rating", "details": "Preemergence", "procedure,_shortened": "(§2)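 Greenhouse plants rated visually against untreated controls 13–15 d after treatment, scale 0 = no effect to 100 = complete control. Postemergence sprays went onto potted plants 2–18 cm tall (1–4 leaves); preemergence sprays onto soil freshly sown in loam–sand or silt loam, chemicals formulated in non-phytotoxic solvent with surfactant.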"}, "[6]": {"system": "waterhemp (common waterhemp, Amaranthus rudis)", "assay": "Test C preemergence, plant response rating", "details": "Preemergence", "procedure,_shortened": "as §2"}, "[7]": {"system": "crabgrass, large (large crabgrass, Digitaria sanguinalis)", "assay": "Test C preemergence, plant response rating", "details": "Preemergence", "procedure,_shortened": "as §2"}, "[8]": {"system": "ryegrass, Italian (Italian ryegrass, Lolium multiflorum)", "assay": "Test C preemergence, plant response rating", "details": "Preemergence", "procedure,_shortened": "as §2"}, "[9]": {"system": "velvetleaf (Abutilon theophrasti)", "assay": "Test C preemergence, plant response rating", "details": "Preemergence", "procedure,_shortened": "as §2"}, "[10]": {"system": "blackgrass (Alopecurus myosuroides)", "assay": "Test C preemergence, plant response rating", "details": "Preemergence", "procedure,_shortened": "as §2"}, "soybean (Glycine max)": {"system": "soybean (Glycine max)", "assay": "Test C preemergence, plant response rating", "details": "Preemergence", "procedure,_shortened": "as §2"}, "corn (Zea mays)": {"system": "corn (Zea mays)", "assay": "Test C preemergence, plant response rating", "details": "Preemergence", "procedure,_shortened": "as §2"}, "[11]": {"system": "oilseed rape (Brassica napus)", "assay": "Test C preemergence, plant response rating", "details": "Preemergence", "procedure,_shortened": "as §2"}, "[12]": {"system": "foxtail, giant (giant foxtail, Setaria faberii)", "assay": "Test C preemergence, plant response rating", "details": "Preemergence", "procedure,_shortened": "as §2"}, "[13]": {"system": "wheat (winter wheat, Triticum aestivum)", "assay": "Test C preemergence, plant response rating", "details": "Preemergence", "procedure,_shortened": "as §2"}, "[14]": {"system": "ragweed (common ragweed, Ambrosia elatior)", "assay": "Test C preemergence, plant response rating", "details": "Preemergence", "procedure,_shortened": "as §2"}, "[15]": {"system": "nutsedge, yellow (yellow nutsedge, Cyperus esculentus)", "assay": "Test C preemergence, plant response rating", "details": "Preemergence", "procedure,_shortened": "as §2"}, "[16]": {"system": "morningglory (Ipomoea coccinea)", "assay": "Test C preemergence, plant response rating", "details": "Preemergence", "procedure,_shortened": "as §2"}}, "data": [{"smiles": "CCCCC(=O)c1c(Br)cccc1Oc1ncc(Cl)cn1", "note": "[Compound 79]", "values": [{"measurement": "Ryegrass, Italian plant response rating", "setting": "[1]; 125 g ai/ha", "result": 90}, {"measurement": "Ryegrass, Italian plant response rating", "setting": "[1]; 500 g ai/ha", "result": 100}, {"measurement": "Foxtail, Giant plant response rating", "setting": "[2]; 125 g ai/ha", "result": 100}, {"measurement": "Foxtail, Giant plant response rating", "setting": "[2]; 500 g ai/ha", "result": 100}, {"measurement": "Pigweed plant response rating", "setting": "[3]; 125 g ai/ha", "result": 100}, {"measurement": "Pigweed plant response rating", "setting": "[3]; 500 g ai/ha", "result": 100}, {"measurement": "Ragweed plant response rating", "setting": "[4]; 125 g ai/ha", "result": 30}, {"measurement": "Ragweed plant response rating", "setting": "[4]; 500 g ai/ha", "result": 90}, {"measurement": "Plant response rating, Lambsquarters", "setting": "[5]; 125 g ai/ha, scale of 0 to 100", "result": 85}, {"measurement": "Plant response rating, Lambsquarters", "setting": "[5]; 16 g ai/ha, scale 0 to 100", "result": 0}, {"measurement": "Plant response rating, Lambsquarters", "setting": "[5]; 31 g ai/ha, scale 0 to 100", "result": 10}, {"measurement": "Plant response rating, Lambsquarters", "setting": "[5]; 62 g ai/ha, scale 0 to 100", "result": 70}, {"measurement": "Plant response rating, Waterhemp", "setting": "[6]; 125 g ai/ha, scale of 0 to 100", "result": 100}, {"measurement": "Plant response rating, Waterhemp", "setting": "[6]; 16 g ai/ha, scale 0 to 100", "result": 100}, {"measurement": "Plant response rating, Waterhemp", "setting": "[6]; 31 g ai/ha, scale 0 to 100", "result": 98}, {"measurement": "Plant response rating, Waterhemp", "setting": "[6]; 62 g ai/ha, scale 0 to 100", "result": 95}, {"measurement": "Plant response rating, Crabgrass, Large", "setting": "[7]; 62 g ai/ha, scale of 0 to 100", "result": 100}, {"measurement": "Plant response rating, Crabgrass, Large", "setting": "[7]; 125 g ai/ha, scale of 0 to 100", "result": 98}, {"measurement": "Plant response rating, Crabgrass, Large", "setting": "[7]; 16 g ai/ha, scale 0 to 100", "result": 65}, {"measurement": "Plant response rating, Crabgrass, Large", "setting": "[7]; 31 g ai/ha, scale 0 to 100", "result": 98}, {"measurement": "Plant response rating, Ryegrass, Italian", "setting": "[8]; 125 g ai/ha, scale of 0 to 100", "result": 35}, {"measurement": "Plant response rating, Ryegrass, Italian", "setting": "[8]; 16 g ai/ha, scale 0 to 100", "result": 0}, {"measurement": "Plant response rating, Ryegrass, Italian", "setting": "[8]; 31 g ai/ha, scale 0 to 100", "result": 10}, {"measurement": "Plant response rating, Ryegrass, Italian", "setting": "[8]; 62 g ai/ha, scale 0 to 100", "result": 30}, {"measurement": "Plant response rating, Velvetleaf", "setting": "[9]; 125 g ai/ha, scale of 0 to 100", "result": 75}, {"measurement": "Plant response rating, Velvetleaf", "setting": "[9]; 16 g ai/ha, scale 0 to 100", "result": 10}, {"measurement": "Plant response rating, Velvetleaf", "setting": "[9]; 31 g ai/ha, scale 0 to 100", "result": 5}, {"measurement": "Plant response rating, Velvetleaf", "setting": "[9]; 62 g ai/ha, scale 0 to 100", "result": 20}, {"measurement": "Plant response rating, Blackgrass", "setting": "[10]; 62 g ai/ha, scale of 0 to 100", "result": 75}, {"measurement": "Plant response rating, Blackgrass", "setting": "[10]; 125 g ai/ha, scale of 0 to 100", "result": 90}, {"measurement": "Plant response rating, Blackgrass", "setting": "[10]; 16 g ai/ha, scale 0 to 100", "result": 5}, {"measurement": "Plant response rating, Blackgrass", "setting": "[10]; 31 g ai/ha, scale 0 to 100", "result": 10}, {"measurement": "Plant response rating, Soybean", "setting": "soybean (Glycine max); 125 g ai/ha, scale of 0 to 100", "result": 5}, {"measurement": "Plant response rating, Soybean", "setting": "soybean (Glycine max); 16 g ai/ha, scale 0 to 100", "result": 0}, {"measurement": "Plant response rating, Soybean", "setting": "soybean (Glycine max); 31 g ai/ha, scale 0 to 100", "result": 0}, {"measurement": "Plant response rating, Soybean", "setting": "soybean (Glycine max); 62 g ai/ha, scale 0 to 100", "result": 5}, {"measurement": "Plant response rating, Corn", "setting": "corn (Zea mays); 62 g ai/ha, scale of 0 to 100", "result": 5}, {"measurement": "Plant response rating, Corn", "setting": "corn (Zea mays); 125 g ai/ha, scale of 0 to 100", "result": 30}, {"measurement": "Plant response rating, Corn", "setting": "corn (Zea mays); 16 g ai/ha, scale 0 to 100", "result": 0}, {"measurement": "Plant response rating, Corn", "setting": "corn (Zea mays); 31 g ai/ha, scale 0 to 100", "result": 0}, {"measurement": "Plant response rating, Oilseed Rape", "setting": "[11]; 125 g ai/ha, scale of 0 to 100", "result": 95}, {"measurement": "Plant response rating, Oilseed Rape", "setting": "[11]; 16 g ai/ha, scale 0 to 100", "result": 0}, {"measurement": "Plant response rating, Oilseed Rape", "setting": "[11]; 31 g ai/ha, scale 0 to 100", "result": 0}, {"measurement": "Plant response rating, Oilseed Rape", "setting": "[11]; 62 g ai/ha, scale 0 to 100", "result": 70}, {"measurement": "Plant response rating, Foxtail, Giant", "setting": "[12]; 62 g ai/ha, scale of 0 to 100", "result": 80}, {"measurement": "Plant response rating, Foxtail, Giant", "setting": "[12]; 125 g ai/ha, scale of 0 to 100", "result": 98}, {"measurement": "Plant response rating, Foxtail, Giant", "setting": "[12]; 16 g ai/ha, scale 0 to 100", "result": 40}, {"measurement": "Plant response rating, Foxtail, Giant", "setting": "[12]; 31 g ai/ha, scale 0 to 100", "result": 70}, {"measurement": "Plant response rating, Wheat", "setting": "[13]; 125 g ai/ha, scale of 0 to 100", "result": 15}, {"measurement": "Plant response rating, Wheat", "setting": "[13]; 16 g ai/ha, scale 0 to 100", "result": 0}, {"measurement": "Plant response rating, Wheat", "setting": "[13]; 31 g ai/ha, scale 0 to 100", "result": 5}, {"measurement": "Plant response rating, Wheat", "setting": "[13]; 62 g ai/ha, scale 0 to 100", "result": 5}, {"measurement": "Plant response rating, Ragweed", "setting": "[14]; 125 g ai/ha, scale of 0 to 100", "result": 30}, {"measurement": "Plant response rating, Ragweed", "setting": "[14]; 16 g ai/ha, scale 0 to 100", "result": 0}, {"measurement": "Plant response rating, Ragweed", "setting": "[14]; 31 g ai/ha, scale 0 to 100", "result": 0}, {"measurement": "Plant response rating, Ragweed", "setting": "[14]; 62 g ai/ha, scale 0 to 100", "result": 20}, {"measurement": "Plant response rating, Nutsedge, Yellow", "setting": "[15]; 125 g ai/ha, scale of 0 to 100", "result": 0}, {"measurement": "Plant response rating, Nutsedge, Yellow", "setting": "[15]; 16 g ai/ha, scale 0 to 100", "result": 0}, {"measurement": "Plant response rating, Nutsedge, Yellow", "setting": "[15]; 31 g ai/ha, scale 0 to 100", "result": 0}, {"measurement": "Plant response rating, Nutsedge, Yellow", "setting": "[15]; 62 g ai/ha, scale 0 to 100", "result": 0}, {"measurement": "Plant response rating, Morningglory", "setting": "[16]; 125 g ai/ha, scale of 0 to 100", "result": 60}, {"measurement": "Plant response rating, Morningglory", "setting": "[16]; 16 g ai/ha, scale 0 to 100", "result": 20}, {"measurement": "Plant response rating, Morningglory", "setting": "[16]; 31 g ai/ha, scale 0 to 100", "result": 10}, {"measurement": "Plant response rating, Morningglory", "setting": "[16]; 62 g ai/ha, scale 0 to 100", "result": 10}]}]}
